Reference: patent publication US9085507B2, “Desfesoterodine in the form of a tartaric acid salt” (ratiopharm GmbH, priority 2009, dated 2015)
Structures can show the parent of a compound that is named as a salt.

Legend:
[1] = In vitro solubility behaviour; type: physicochemical; conditions: for In vitro solubility profile: compared with fesoterodine fumarate
Protocol: The in vitro solubility behaviour of fesoterodine fumarate (crystalline, commercially available), desfesoterodine fumarate in accordance with Comparative Example 1 and desfesoterodine tartrate in accordance with Example 1 of the invention was investigated:
Solubility behaviour scale: • poor: <20 mg/ml • average: 20 to 60 mg/ml • good: >60 to 80 mg/ml • very good: >80 mg/ml

[2] = Stability on storage, stress test; type: physicochemical
Protocol: Further, the stability on storage of desfesoterodine tartrate was determined in a stress test.

[3] = tested on: overactive bladder syndrome; conditions: both phase III studies, over placebo; cited from earlier work

In vitro solubility behaviour ([1]; pH 4.5)	In vitro solubility behaviour ([1]; pH 10)	Stability on storage ([2]; aqueous solution, pH of 4.5)	Stability on storage ([2]; aqueous solution, pH of 10)	Stability on storage ([2]; solid form)	Structure (SMILES)	In vitro solubility profile ([1]; listed as desfesoterodine salt of the invention)	Clinically relevant outcomes (urge incontinence results/24 h, micturition frequency, median micturition volume) [3]	In vitro solubility profile [1]
Good	Good	advantageous stability on storage	advantageous stability on storage	advantageous stability on storage	CC(C)N(CC[C@H](c1ccccc1)c1cc(CO)ccc1O)C(C)C [Desfesoterodine tartrate, (R)-2-(3-diisopropylamino-1-phenylpropyl)-4-hydroxymethylphenol]	almost identical in vitro solubility profile to that of fesoterodine fumarate		
					CC(C)C(=O)Oc1ccc(CO)cc1[C@H](CCN(C(C)C)C(C)C)c1ccccc1 [Fesoterodine, 2-[(1R)-3-(diisopropylamino)-1-phenylpropyl]-4-(hydroxymethyl)phenyl-isobutyrate]		statistically significant improvements	
Poor	Poor				CC(C)N(CC[C@H](c1ccccc1)c1cc(CO)ccc1O)C(C)C [Desfesoterodine fumarate, (R)-2-(3-diisopropylamino-1-phenylpropyl)-4-hydroxymethylphenol]			substantially poorer in vitro solubility profile
Good	Good				CC(C)C(=O)Oc1ccc(CO)cc1[C@H](CCN(C(C)C)C(C)C)c1ccccc1 [Fesoterodine fumarate, 2-[(1R)-3-(diisopropylamino)-1-phenylpropyl]-4-(hydroxymethyl)phenyl-isobutyrate]			
